Assay results as given in patent publication US9273057B2 (Bristol-Myers Squibb Company, priority 2012, dated 2016).

Biological target: CK2A1 (CK2α/β) (Homo sapiens, UniProt P68400)
Assay: CK2 kinase assay, CK2A1 (CK2α/β)
Type: biochemical
Conditions: Table A; read-out: CK2A1 (CK2α/β) (IC50)

CK2A1 (CK2α/β), sequence (P68400 whole entry, species assumed): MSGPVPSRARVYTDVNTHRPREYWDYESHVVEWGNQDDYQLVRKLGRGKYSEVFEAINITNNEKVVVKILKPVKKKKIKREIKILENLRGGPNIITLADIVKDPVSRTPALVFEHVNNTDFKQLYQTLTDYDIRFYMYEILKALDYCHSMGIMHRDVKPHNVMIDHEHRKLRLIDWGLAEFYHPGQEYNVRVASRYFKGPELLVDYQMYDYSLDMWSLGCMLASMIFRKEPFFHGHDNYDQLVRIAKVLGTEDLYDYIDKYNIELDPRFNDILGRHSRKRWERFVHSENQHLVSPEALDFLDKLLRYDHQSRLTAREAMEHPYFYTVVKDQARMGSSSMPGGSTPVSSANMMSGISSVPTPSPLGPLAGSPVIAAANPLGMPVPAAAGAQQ
CK2A1 (CK2α/β), sequence (P67870 whole entry partner, species assumed): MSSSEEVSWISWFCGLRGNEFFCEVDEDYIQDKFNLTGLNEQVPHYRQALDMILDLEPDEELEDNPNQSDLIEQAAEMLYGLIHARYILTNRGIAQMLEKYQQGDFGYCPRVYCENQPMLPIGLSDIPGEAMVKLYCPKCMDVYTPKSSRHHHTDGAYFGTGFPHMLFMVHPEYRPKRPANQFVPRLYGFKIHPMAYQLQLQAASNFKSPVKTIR

Question: For `N#Cc1cc(Nc2nc(NC3CC3)c3ncc(C#N)n3n2)c(Cl)c(N2CCN3C[C@H](O)C[C@H]3C2)c1` (racemic) [Example 434, (+/−)-2-((2-chloro-5-cyano-3-((7R,8aS)-7-hydroxyhexahydropyrrolo[1,2-a]pyrazin-2(1H)-yl)phenyl)amino)-4-(cyclopropylamino)imidazo[2,1-f][1,2,4]triazine-7-carbonitrile], which IC50 is on record?
Answer: 0.61 nM

Question: With `N#Cc1cc(Nc2nc(NC3CC3)c3ncc(C#N)n3n2)c(Cl)c(N2CCN3C[C@H](O)C[C@@H]3C2)c1` (racemic) [Example 435, (+/−)-2-((2-chloro-5-cyano-3-((7R,8aR)-7-hydroxyhexahydropyrrolo[1,2-a]pyrazin-2(1H)-yl)phenyl)amino)-4-(cyclopropylamino)imidazo[2,1-f][1,2,4]triazine-7-carbonitrile] as the compound, how does the IC50 read?
Answer: 1.13 nM

Question: Which IC50 does the source give for `CCNc1nc(Nc2cc(C#N)cc(N3CCN4C[C@H](O)C[C@H]4C3)c2Cl)nn2c(C#N)cnc12` (racemic) [Example 436, (+/−)-2-((2-chloro-5-cyano-3-((7R,8aS)-7-hydroxyhexahydropyrrolo[1,2-a]pyrazin-2(1H)-yl)phenyl)amino)-4-(ethylamino)imidazo[2,1-f][1,2,4]triazine-7-carbonitrile] here?
Answer: 2.51 nM

Question: `N#Cc1cc(Nc2nc(NC3CC3)c3ncc(C#N)n3n2)c(Cl)c(N2CCN3C[C@@H](F)C[C@H]3C2)c1` (racemic) [Example 437, (+/−)-2-((2-chloro-5-cyano-3-((7R,8aR)-7-fluorohexahydropyrrolo[1,2-a]pyrazin-2(1H)-yl)phenyl)amino)-4-(cyclopropylamino)imidazo[2,1-f][1,2,4]triazine-7-carbonitrile] was tested. Which IC50 did it give?
Answer: 0.83 nM

Question: Which IC50 does the source give for `N#Cc1cc(Nc2nc(NC3CC3)c3ncc(C#N)n3n2)c(Cl)c(N2CCN3CC[C@H](O)[C@H]3C2)c1` (racemic) [Example 438, (+/−)-2-((2-chloro-5-cyano-3-((8R,8aS)-8-hydroxyhexahydropyrrolo[1,2-a]pyrazin-2(1H)-yl)phenyl)amino)-4-(cyclopropylamino)imidazo[2,1-f][1,2,4]triazine-7-carbonitrile] here?
Answer: 0.73 nM

Question: `N#Cc1cc(Nc2nc(NC3CC3)c3ncc(C#N)n3n2)c(Cl)c(OC2CNCCOC2)c1` (racemic) [Example 440, (+/−)-2-((3-((1,4-oxazepan-6-yl)oxy)-2-chloro-5-cyanophenyl)amino)-4-(cyclopropylamino)imidazo[2,1-f][1,2,4]triazine-7-carbonitrile] was tested. Which IC50 did it give?
Answer: 0.88 nM

Question: `N#Cc1cc(Nc2nc(NC3CC3)c3ncc(C#N)n3n2)c(Cl)c(N2CCC3NCCC3C2)c1` (racemic) [Example 442, 2-((2-chloro-5-cyano-3-(hexahydro-1H-pyrrolo[3,2-c]pyridin-5(6H)-yl)phenyl)amino)-4-(cyclopropylamino)imidazo[2,1-f][1,2,4]triazine-7-carbonitrile] was tested. Which IC50 did it give?
Answer: 0.77 nM

Question: How did the IC50 turn out when `CC(O)CN1CCC2CN(c3cc(C#N)cc(Nc4nc(NC5CC5)c5ncc(C#N)n5n4)c3Cl)CCC21` (racemic) [Example 447, (+/−)-2-((2-chloro-5-cyano-3-(1-(2-hydroxypropyl)hexahydro-1H-pyrrolo[3,2-c]pyridin-5(6H)-yl)phenyl)amino)-4-(cyclopropylamino)imidazo[2,1-f][1,2,4]triazine-7-carbonitrile] was run?
Answer: 0.89 nM

Question: For `N#Cc1cc(Nc2nc(NC3CC3)c3ncc(C#N)n3n2)c(Cl)c(N2CCC3C(CCN3[C@H]3COC[C@@H]3O)C2)c1` (mixture of isomers) [Example 451, (+/−)-2-((2-chloro-5-cyano-3-(1-((3S,4R)-4-hydroxytetrahydrofuran-3-yl)hexahydro-1H-pyrrolo[3,2-c]pyridin-5(6H)-yl)phenyl)amino)-4-(cyclopropylamino)imidazo[2,1-f][1,2,4]triazine-7-carbonitrile], which IC50 is on record?
Answer: 5.52 nM

Question: How did the IC50 turn out when `N#Cc1cc(Nc2nc(NC3CC3)c3ncc(C#N)n3n2)c(Cl)c(N2CCC3CCNC3C2)c1` (racemic) [Example 454, (+/−)-2-((2-chloro-5-cyano-3-(hexahydro-1H-pyrrolo[2,3-c]pyridin-6(2H)-yl)phenyl)amino)-4-(cyclopropylamino)imidazo[2,1-f][1,2,4]triazine-7-carbonitrile] was run?
Answer: 1.25 nM

Question: `CN1CCC2CCN(c3cc(C#N)cc(Nc4nc(NC5CC5)c5ncc(C#N)n5n4)c3Cl)CC21` (racemic) [Example 456] was tested. Which IC50 did it give?
Answer: 2.9 nM

Question: With `N#Cc1cc(Nc2nc(NC3CC3)c3ncc(C#N)n3n2)c(Cl)c(N2CCC3CCN(C4COC4)C3C2)c1` (racemic) [Example 457, (+/−)-2-((2-chloro-5-cyano-3-(1-(oxetan-3-yl)hexahydro-1H-pyrrolo[2,3-c]pyridin-6(2H)-yl)phenyl)amino)-4-(cyclopropylamino)imidazo[2,1-f][1,2,4]triazine-7-carbonitrile] as the compound, how does the IC50 read?
Answer: 4.9 nM

Question: How did the IC50 turn out when `COC(=O)N1CCC2CCN(c3cc(C#N)cc(Nc4nc(NC5CC5)c5ncc(C#N)n5n4)c3Cl)CC21` (racemic) [Example 458, (+/−)-methyl 6-(2-chloro-5-cyano-3-((7-cyano-4-(cyclopropylamino)imidazo[2,1-f][1,2,4]triazin-2-yl)amino)phenyl)octahydro-1H-pyrrolo[2,3-c]pyridine-1-carboxylate] was run?
Answer: 16.4 nM

Question: With `N#Cc1cc(Nc2nc(NC3CC3)c3ncc(C#N)n3n2)c(Cl)c(N2CCC3CCN(CC(O)CF)C3C2)c1` (racemic) [Example 459, (+/−)-2-((2-chloro-5-cyano-3-(1-(3-fluoro-2-hydroxypropyl)hexahydro-1H-pyrrolo[2,3-c]pyridin-6(2H)-yl)phenyl)amino)-4-(cyclopropylamino)imidazo[2,1-f][1,2,4]triazine-7-carbonitrile] as the compound, how does the IC50 read?
Answer: 1.27 nM

Question: `CC(O)CN1CCC2CCN(c3cc(C#N)cc(Nc4nc(NC5CC5)c5ncc(C#N)n5n4)c3Cl)CC21` (racemic) [Example 460, (+/−)-2-((2-chloro-5-cyano-3-(1-(2-hydroxypropyl)hexahydro-1H-pyrrolo[2,3-c]pyridin-6(2H)-yl)phenyl)amino)-4-(cyclopropylamino)imidazo[2,1-f][1,2,4]triazine-7-carbonitrile] was tested. Which IC50 did it give?
Answer: 1.62 nM

Question: `N#Cc1cc(Nc2nc(NC3CC3)c3ncc(C#N)n3n2)c(Cl)c(N2CCN([C@@H]3CS(=O)(=O)C[C@H]3O)CC2)c1` (racemic) [Example 535, rac-2-((2-chloro-5-cyano-3-(4-((3R,4R)-4-hydroxy-1,1-dioxidotetrahydrothiophen-3-yl)piperazin-1-yl)phenyl)amino)-4-(cyclopropylamino)imidazo[2,1-f][1,2,4]triazine-7-carbonitrile] was tested. Which IC50 did it give?
Answer: 0.91 nM

Question: With `N#Cc1cc(Nc2nc(NC3CC3)c3ncc(C#N)n3n2)c(F)c(N2CCN([C@@H]3COC[C@H]3O)CC2)c1` (racemic) [Example 552, rac-2-((5-cyano-2-fluoro-3-(4-((3R,4S)-4-hydroxytetrahydrofuran-3-yl)piperazin-1-yl)phenyl)amino)-4-(cyclopropylamino)imidazo[2,1-f][1,2,4]triazine-7-carbonitrile] as the compound, how does the IC50 read?
Answer: 6.31 nM

Question: Which IC50 does the source give for `N#Cc1cc(Nc2nc(NC3CC3)c3ncc(C#N)n3n2)c(F)c(N2CCN([C@@H]3CS(=O)(=O)C[C@H]3O)CC2)c1` (racemic) [Example 553, rac-2-((5-cyano-2-fluoro-3-(4-((3R,4R)-4-hydroxy-1,1-dioxidotetrahydrothiophen-3-yl)piperazin-1-yl)phenyl)amino)-4-(cyclopropylamino)imidazo[2,1-f][1,2,4]triazine-7-carbonitrile] here?
Answer: 5.55 nM

Question: `N#Cc1cc(Nc2nc(NC3CC3)c3ncc(C#N)n3n2)c(Cl)c(N2CCN(CC(O)CF)CC2=O)c1` (racemic) [Example 622, (+/−)-2-((2-chloro-5-cyano-3-(4-(3-fluoro-2-hydroxypropyl)-2-oxopiperazin-1-yl)phenyl)amino)-4-(cyclopropylamino)imidazo[2,1-f][1,2,4]triazine-7-carbonitrile] was tested. Which IC50 did it give?
Answer: 1.09 nM

Question: Which IC50 does the source give for `CC(O)CN1CCN(c2cc(C#N)cc(Nc3nc(NC4CC4)c4ncc(C#N)n4n3)c2Cl)C(=O)C1` (racemic) [Example 624, (+/−)-2-((2-chloro-5-cyano-3-(4-(2-hydroxypropyl)-2-oxopiperazin-1-yl)phenyl)amino)-4-(cyclopropylamino)imidazo[2,1-f][1,2,4]triazine-7-carbonitrile] here?
Answer: 2.94 nM

Question: `CN1CCN2CCN(c3cc(C#N)cc(Nc4nc(NC5CC5)c5ncc(C#N)n5n4)c3Cl)CC2C1=O` (racemic) [Example 626, (+/−)-2-((2-chloro-5-cyano-3-(8-methyl-9-oxohexahydro-1H-pyrazino[1,2-a]pyrazin-2(6H)-yl)phenyl)amino)-4-(cyclopropylamino)imidazo[2,1-f][1,2,4]triazine-7-carbonitrile] was tested. Which IC50 did it give?
Answer: 0.74 nM

Question: How did the IC50 turn out when `CC(C(N)=O)N1CCC(c2cc(C#N)cc(Nc3nc(NC4CC4)c4ncc(C#N)n4n3)c2Cl)CC1` (racemic) [Example 639, (+/−)-2-(4-(2-chloro-5-cyano-3-((7-cyano-4-(cyclopropylamino)imidazo[2,1-f][1,2,4]triazin-2-yl)amino)phenyl)piperidin-yl)propanamide] was run?
Answer: 1.28 nM

Question: With `CCNc1nc(Nc2cc(C#N)cc(C3CCN(C(C)C(N)=O)CC3)c2Cl)nn2c(C#N)cnc12` (racemic) [Example 640, (+/−)-2-(4-(2-chloro-5-cyano-3-((7-cyano-4-(ethylamino)imidazo[2,1-f][1,2,4]triazin-2-yl)amino)phenyl)piperidin-1-yl)propanamide] as the compound, how does the IC50 read?
Answer: 2.22 nM

Question: With `CC(O)c1cc(C#N)cc(Nc2nc(NC3CC3)c3ncc(C#N)n3n2)c1Cl` (racemic) [Example 677, (+/−)-2-((2-chloro-5-cyano-3-(1-hydroxyethyl)phenyl)amino)-4-(cyclopropylamino)imidazo[2,1-f][1,2,4]triazine-7-carbonitrile] as the compound, how does the IC50 read?
Answer: 0.47 nM

Question: How did the IC50 turn out when `CC(c1cc(C#N)cc(Nc2nc(NC3CC3)c3ncc(C#N)n3n2)c1Cl)N1CCN(S(C)(=O)=O)CC1` (racemic) [Example 678] was run?
Answer: 1.87 nM

Question: `CC(c1cc(C#N)cc(Nc2nc(NC3CC3)c3ncc(C#N)n3n2)c1Cl)N1CCNC(=O)C1` (racemic) [Example 679, (+/−)-2-((2-chloro-5-cyano-3-(1-(3-oxopiperazin-1-yl)ethyl)phenyl)amino)-4-(cyclopropylamino)imidazo[2,1-f][1,2,4]triazine-7-carbonitrile] was tested. Which IC50 did it give?
Answer: 1.22 nM
